Earlier results in patent US12419901B2, “Prodrugs of deoxynucleosides for treatment of diseases caused by unbalanced nucleotide pools” (UCB BIOSCIENCES, INC., priority 2018, dated 2025).

Tested on: dGK deficient patient derived fibroblasts
Details: 50 μM in cell culture medium, quiescent dGK-deficient fibroblasts

Question: With `Nc1nc2c(ncn2[C@H]2C[C@H](O)[C@@H](CO)O2)c(=O)[nH]1` [dGuo, deoxyguanosine] as the compound, how does the “mtDNA depletion (previously demonstrated)” value read?
Answer: Its value is “sufficient to prevent this depletion”.
